From BindingDB's records for doi:10.1021/jm00120a002 (Merck Sharp & Dohme Research Laboratories, 1989)

Test: Half-maximal inhibition of [125I]gastrin binding to guinea pig gastric glands

Structure (SMILES)	IC50 [µM]
O=C(NC1N=C(c2ccccc2)c2ccccc2NC1=O)c1cccc(Cl)c1 (centres undefined) [3-Chloro-N-(2-oxo-5-phenyl-2,3-dihydro-1H-benzo[e][1,4]diazepin-3-yl)-benzamide:0.5CHCl3]	19
O=C(O)CN1C(=O)C(NC(=O)c2cc3ccccc3[nH]2)N=C(c2ccccc2F)c2ccccc21 (centres undefined)	0.39
CN1C(=O)C(NC(=O)c2cc3ccccc3n2C)N=C(c2ccccc2F)c2ccccc21 (centres undefined)	1.6
O=C(NC1N=C(c2ccccc2F)c2ccccc2NC1=O)c1cc2cc(Cl)ccc2[nH]1 (centres undefined) [5-Chloro-1H-indole-2-carboxylic acid [5-(2-fluoro-phenyl)-2-oxo-2,3-dihydro-1H-benzo[e][1,4]diazepin-3-yl]-amide]	20
CN1C(=O)[C@@H](NC(=O)c2cccc(Br)c2)N=C(c2ccccc2F)c2ccccc21	0.75
COc1ccc2[nH]c(C(=O)NC3N=C(c4ccccc4F)c4ccccc4NC3=O)cc2c1 (centres undefined)	> 10
COc1ccc(C(=O)NC2N=C(c3ccccc3F)c3ccccc3NC2=O)cc1 (centres undefined)	5.4
O=C(NC1N=C(c2ccccc2F)c2ccccc2NC1=O)c1ccsc1 (centres undefined)	> 10
O=C1Nc2ccccc2C(c2ccccc2F)=NC1NC(=O)C(O)c1ccccc1 (centres undefined)	> 10
CN1C(=O)[C@H](NC(=O)c2ccccc2Cl)N=C(c2ccccc2F)c2ccccc21	3.7
CN1C(=O)C(NC(=O)c2ccc(C(C)(C)C)cc2)N=C(c2ccccc2F)c2ccccc21 (centres undefined)	6.4
CCCc1ccc(C(=O)NC2N=C(c3ccccc3)c3ccccc3NC2=O)cc1 (centres undefined)	80
Cn1c(C(=O)NC2N=C(c3ccccc3F)c3ccccc3NC2=O)cc2ccccc21 (centres undefined)	6.3
Cc1ccc(C(=O)NC2N=C(c3ccccc3F)c3ccccc3NC2=O)cc1 (centres undefined)	5
CN1C(=O)C(NC(=O)[C@@H](Cc2ccccc2)NC(=O)OC(C)(C)C)N=C(c2ccccc2)c2ccccc21 (some centres undefined)	26
CN1C(=O)C(NC(=O)[C@H](Cc2ccccc2)NC(=O)OC(C)(C)C)N=C(c2ccccc2F)c2ccccc21 (some centres undefined)	1.2
O=C(NC1N=C(c2ccccc2F)c2ccccc2NC1=O)c1cc2cc(Br)ccc2[nH]1 (centres undefined)	> 10

Structure (SMILES)	IC50 [µM]
CC(C)(C)OC(=O)N[C@H](Cc1ccccc1)C(=O)NC1N=C(c2ccccc2)c2ccccc2NC1=O (some centres undefined)	> 100
O=C(CCc1c[nH]c2ccccc12)NC1N=C(c2ccccc2)c2ccccc2NC1=O (centres undefined)	17
O=C(NC1N=C(c2ccccc2F)c2ccccc2NC1=O)c1ccc([N+](=O)[O-])cc1 (centres undefined)	> 10
CN1C(=O)[C@@H](NC(=O)c2ccc(C#N)cc2)N=C(c2ccccc2F)c2ccccc21	9
CC1(C(=O)NC2N=C(c3ccccc3F)c3ccccc3NC2=O)C=Cc2ccccc21 (centres undefined)	> 10
O=C(NC1N=C(c2ccccc2F)c2ccccc2NC1=O)c1ccc[nH]1 (centres undefined)	25
CN1C(=O)C(NC(=O)C(Cc2ccccc2)NC(=O)OC(C)(C)C)N=C(c2ccccc2F)c2ccccc21 (centres undefined)	2.9
O=C(NC1N=C(c2ccccc2F)c2ccccc2NC1=O)c1cc2ccccc2o1 (centres undefined)	11
CC(C)(C)c1ccc(C(=O)NC2N=C(c3ccccc3)c3ccccc3NC2=O)cc1 (centres undefined) [4-tert-Butyl-N-(2-oxo-5-phenyl-2,3-dihydro-1H-benzo[e][1,4]diazepin-3-yl)-benzamide: 0.12CHCl3]	40
O=C(NC1N=C(c2ccccc2)c2ccccc2NC1=O)c1cccc2ccccc12 (centres undefined)	29
O=C(NC1N=C(c2ccccc2)c2ccccc2NC1=O)c1ccc(Cl)cc1 (centres undefined)	8.2
CN1C(=O)C(NC(=O)c2ccccc2Cl)N=C(c2ccccc2)c2ccccc21 (centres undefined)	30
O=C(NC1N=C(c2ccccc2)c2ccccc2NC1=O)c1ccc(-c2ccccc2)cc1 (centres undefined)	> 100
O=C(NC1N=C(c2ccccc2)c2ccccc2NC1=O)c1ccc(O)cc1 (centres undefined)	31
CN1C(=O)C(N(C)C(=O)c2ccccc2Cl)N=C(c2ccccc2)c2ccccc21 (centres undefined)	> 100
CSc1ccc(C(=O)NC2N=C(c3ccccc3)c3ccccc3NC2=O)cc1 (centres undefined)	8
O=C(NC1N=C(c2ccccc2F)c2ccccc2N(C(=O)c2ccc(Cl)cc2)C1=O)c1ccc(Cl)cc1 (centres undefined)	0.55
